Entries after “also recorded” stand apart in the source; their conditions may differ.
Assays:
[1] = Chemical stability during storage; conditions: long term storage; free base vs hydrochloride
[2] = obese subjects, after 2 weeks of treatment; cited from earlier work
5-HT2c receptor [3] = biological target: T1, 5-HT2c receptor (Mus musculus, UniProt P34968); conditions: mice that express the normal 5-HT2c receptor; cited from earlier work
T1 construct: mice that express the normal 5-HT2c receptor; host or cells: mice (whole animal)
T1 sequence (P34968 33-459): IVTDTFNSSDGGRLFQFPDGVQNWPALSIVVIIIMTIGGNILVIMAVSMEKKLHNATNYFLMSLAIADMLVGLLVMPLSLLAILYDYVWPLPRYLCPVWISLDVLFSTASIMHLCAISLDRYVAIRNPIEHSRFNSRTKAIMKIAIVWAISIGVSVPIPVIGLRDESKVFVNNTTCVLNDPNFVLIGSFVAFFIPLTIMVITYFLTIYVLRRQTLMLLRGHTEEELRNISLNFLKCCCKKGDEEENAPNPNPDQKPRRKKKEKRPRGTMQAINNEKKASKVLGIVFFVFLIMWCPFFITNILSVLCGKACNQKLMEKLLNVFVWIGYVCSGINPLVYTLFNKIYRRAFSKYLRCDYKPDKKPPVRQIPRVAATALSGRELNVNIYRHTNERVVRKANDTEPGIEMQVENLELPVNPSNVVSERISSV

5-HT2c receptor [4] = conditions: mice expressing the mutated inactive form of the 5-HT2c receptor; cited from earlier work
[5] = salts of Example 2A; assessment, no test described; cited from earlier work
[6] = Crystallinity (X-rays / powder X-ray diffraction); type: physicochemical; conditions: salts of Example 2A, L-malate salt
Description: (§1) Crystallinity (Powder X-Ray Diffraction)
as §1

[7] = Polymorphism screen (RT evaporation, cooling crystallization at −20° C.); type: physicochemical; conditions: salts of Example 2A, cooling crystallization at −20° C. in different solvent or mixtures
[8] = Chemical stability (2 weeks at 65° C.); type: physicochemical; conditions: salts of Example 2A, also RT/90% RH, L-malate salt
Procedure: Chemical Stability (2 Weeks at 65° C.)

[9] = Hygroscopicity (DVS, storage at RT/different RHs and at 40° C./75% RH); type: physicochemical; conditions: salts of Example 2A; for Hygroscopicity: DVS, storage at RT/different RHs, L-malate salt
Procedure: Hygroscopicity (DVS, Storage at RT/Different RHs and at 40° C./75% RH)

C[C@@H]1CNCCN1c1nccnc1Cl.Cl [Example 9, (2R)-1-(3-chloro-2-pyrazinyl)-2-methylpiperazine, hydrochloride]
melting point: 209 to 210.5 °C | stability for storage [1]: considerably more stable

Clc1cccc(N2CCNCC2)c1 [mCPP, m-chlorophenylpiperazine]
body weight [2]: slight but sustained reduction in body weight | weight loss (5-HT2c receptor [3]): causes weight loss | weight loss (5-HT2c receptor [4]): lacks activity

C[C@@H]1CNCCN1c1nccnc1OCCOc1cccnc1.O=C(O)C[C@H](O)C(=O)O [Example 3A, (2R)-methyl-1-{3-[2-(3-pyridinyloxy)ethoxy]-2-pyrazinyl}piperazine, L-malate salt]
Toxicological acceptability [5]: low toxicity | Crystallinity (X-Rays) [6]: higher crystallinity | Crystallinity (X-Rays) ([6]; listed as L-malate): Positive results; also recorded: high crystallinity | Polymorphism [7]: did not show other polymorphs | Chemical stability [8]: higher chemical stability | Chemical stability ([8]; listed as L-malate): Positive data; also recorded: high chemical stability | behavior upon exposition to 40° C./75% RH ([9]; 40° C./75% RH): good behavior | Hygroscopicity [9]: less hygroscopic | Hygroscopicity ([9]; listed as L-malate): low hygroscopicity

Source: patent publication US8410113B2, “(2R)-1-(3-chloro-2-pyrazinyl)-2-methylpiperazine and salts thereof” (Biovitrum AB (publ), priority 2002, dated 2013)
